Assay results: US10718028B2, “Fluorescent probes for abasic site detection” (CASE WESTERN RESERVE UIVERSITY, priority 2015, dated 2020)
Entries after “also recorded” stand apart in the source; their conditions may differ.

Tests used:
UDG = molecular target: T1, UDG (Escherichia coli, UniProt P12295); test: SSB activity assay UDG inhibition; type: biochemical; conditions: UDG 10 min pretreatment vs simultaneous UDG and Cy7MX
T1 construct: purchased New England BioLabs
Experimental: FIG. 8 illustrates the evaluation of UDG inhibition by Cy7MX. Time course represents incubation time of U:A DNA before APE addition with UDG alone, 10 minutes UDG pretreatment then Cy7MX, and UDG and Cy7MX without pretreatment.
Method UDG (10 min)+Cy7MX: All samples were prepared in triplicate.
Method UDG+Cy7MX: All samples were prepared in triplicate. […] Samples were incubated at 37° C. in the dark for 2 min, 10 min, 30 min, 60 min, or 180 min.
Method UDG: As in method UDG+Cy7MX except substitute DMSO (2 μL) for Cy7MX.
Likewise, the potential of Cy7MX to inhibit UDG, either through direct interaction with the enzyme or by binding to DNA and blocking the uracil substrate, was tested. To accomplish this, U:A DNA was incubated with UDG for a fixed time prior to addition of Cy7MX (FIG. 8, UDG (10 min)+Cy7MX). In this case, Cy7MX could not interfere with the activity of UDG.

DLD1 WT cells = test: MMS treatment, isolation, and Cy7MX analysis of DLD1 DNA; type: cell-based; conditions: 3 h MMS exposure, 1 h Cy7MX
Experimental: DLD1 shControl (WT) cells at a density of 3 million cells per dish were plated in Falcon brand 100×20 mm cell culture dishes in 10 mL medium (DMEM supplemented with 10% heat inactivated FBS, penicillin/streptomycin, and nonessential amino acids) and incubated 16 h at 37° C. and 5% CO2 to ensure adhesion. Solutions of MMS were prepared in serum free DMEM medium at concentrations of 0.05, 0.25, 1, 4, and 10 mM. Medium was removed from the cells and replaced with the MMS or a serum free medium vehicle. Three plates were prepared per treatment group. Cells were incubated at 37° C. and 5% CO2 with continuous MMS exposure for 3 h. At the time points, cells were collected and DNA isolated as described above (Treatment of DLD1 cells with FUDR).
Pure DNA pellets were suspended in 190 μL water. A solution of Cy7MX (10 μL, final=25 μM) was added to each sample, keeping the stock solution and all treated samples vigorously in the dark until the final analysis. Samples were incubated with Cy7MX for 1 h at 37° C. in the dark. After incubation, DNA was purified and analyzed as described above.
Methyl methanesulfonate (MMS) is a methylating agent used to induce AP sites in cells. An MMS dose-response in DLD1 WT cells was performed for a 3 h treatment time. […] Fluorescence was measured following ethanol precipitation purification.

APE = molecular target: T2, APE (Homo sapiens, UniProt P27695); test: SSB activity assay APE inhibition; type: biochemical
T2 construct: purchased New England BioLabs
T2 sequence (P27695 whole entry): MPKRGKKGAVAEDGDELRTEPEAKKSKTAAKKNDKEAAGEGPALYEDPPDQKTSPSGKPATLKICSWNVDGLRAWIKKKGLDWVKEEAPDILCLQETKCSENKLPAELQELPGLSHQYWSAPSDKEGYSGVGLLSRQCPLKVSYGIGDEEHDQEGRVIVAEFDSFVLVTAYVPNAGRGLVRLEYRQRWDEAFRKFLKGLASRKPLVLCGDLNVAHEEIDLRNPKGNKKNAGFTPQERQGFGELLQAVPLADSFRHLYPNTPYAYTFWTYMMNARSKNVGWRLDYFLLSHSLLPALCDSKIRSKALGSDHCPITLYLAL
Experimental: FIG. 7 illustrates the evaluation of APE inhibition by Cy7MX. […] APE is inhibited about 50% after 3 h incubation. The baseline reduction in cutting is due to competition of APE and Cy7MX for the AP-DNA substrate.
Meanwhile, five samples of each DNA reaction were prepared.
We determined if Cy7MX could inhibit the activity of the enzymes and thereby complicate the results on the assay. While the order of reagent addition in the assay may be structured to avoid enzyme inhibition, Cy7MX is envisioned as an imaging agent in living cells where the enzymes are constantly present. To test the possible inhibition of Cy7MX towards APE, the probe and enzyme were incubated together for a variable period of time then incubated for a fixed period of time with AP DNA (U:A DNA pretreated with UDG). If the two species were only competing for substrate, then the extent of cutting observed would be independent of the APE+Cy7MX incubation time. Conversely, if Cy7MX inhibits the action of APE, then the extent of cutting would vary as a function of APE+Cy7MX incubation time. In either case, some baseline reduction in cutting was expected as Cy7MX and APE competed for substrate. […] However, this effect was only observed after 60 minutes. Thus, the one hour incubation of APE in the cutting assay is not expected to be negatively impacted by the presence of Cy7MX.

[1] = tested on: AP sites in calf thymus DNA; test: MX and Cy7MX genomic DNA blocking assay; type: binding; conditions: not blocked by MX
Experimental: FIG. 10 illustrates fluorescence response and MX blocking of Cy7MX. Calf thymus DNA treated with heat and acid for increments of 15 min to give a linear relative number of AP sites. AP DNA was then pretreated with MX (50 mM, +MX) or NaCl (50 mM, −MX) followed by incubation with Cy7MX (0.05 mM). Fluorescence measures show a linear response to Cy7MX when not blocked by MX.
Calf thymus DNA was purchased from Sigma and was reconstituted overnight at 4° C. in either H2O or 500 mM MX (to eliminate basal AP sites) with gentle shaking (1.5 mL water or solution per 5 mg DNA). For samples reconstituted in MX solution, an ethanol precipitation was performed twice before heat and acid treatment (vide infra) then reconstituted in water. The DNA-water solution was aliquoted to 1.5 mL Eppendorf tubes (360 μL) and 10× Citrate buffer (1M NaCl, 100 μM monosodium phosphate, 100 μM monosodium citrate, pH 5.0) was added to a final concentration of 1×. For t=0 min samples, ice-cold 100% EtOH (1.0 mL) was added immediately and the Eppendorf tubes stored at −20° C. […]
To 80 μL aliquots of DNA was added either 10 μL of MX (500 mM, pH 7) or vehicle control (500 mM NaCl). […] Aliquots (125 μL) of the samples were added to a black, clear-bottom 96 well plate (Corning) and analyzed with 700 nm excitation and 790 nm emission. Fluorescence was adjusted to DNA concentration.

T1 sequence (P12295 whole entry): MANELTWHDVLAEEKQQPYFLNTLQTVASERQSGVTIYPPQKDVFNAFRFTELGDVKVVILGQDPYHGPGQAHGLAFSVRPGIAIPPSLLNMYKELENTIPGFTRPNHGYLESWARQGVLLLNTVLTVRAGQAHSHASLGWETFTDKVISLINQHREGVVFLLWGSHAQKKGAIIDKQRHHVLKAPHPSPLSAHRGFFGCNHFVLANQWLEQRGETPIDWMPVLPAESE

## CCCN1/C(=C/C=C2\CCCC(/C=C/C3=[N+](CCC)c4ccccc4C3(C)C)=C2Oc2ccc(CC(=O)NCCCON)cc2)C(C)(C)c2ccccc21 [Cy7MX, 2-((E)-2-((E)-2-(4-(2-((3-(aminooxy)propyl)amino)-2-oxoethyl)phenoxy)-3-((E)-2-(3,3-dimethyl-1-propylindolin-2-ylidene)ethylidene)cyclohex-1-en-1-yl)vinyl)-3,3-dimethyl-1-propyl-3H-indol-1-ium 2,2,2-trifluoroacetate]
UDG
  UDG inhibition: does not inhibit UDG activity
DLD1 WT cells
  detection of AP sites in DNA of MMS treated cells: sensitive to the quantity of AP sites induced by mM concentrations of MMS
APE; 60 min APE incubation
  APE inhibition: no detectable inhibition
APE; APE and Cy7MX incubated together before addition of AP-DNA, variable time, 2,2,2-trifluoroacetate
  APE inhibition: did have inhibitory effects on APE; also recorded: mild inhibition
APE; after 3 h incubation of APE with Cy7MX
  APE inhibition: about 50%
APE; tetrahydrofuran (THF) base in place of the AP site
  APE inhibition: moderate inhibition of APE
[1]
  fluorescence intensity versus DNA heat/acid treatment time: linear relationship
